# Where no end group is shown, it is not given here.
# What was measured:
# Experiment in all cases: micro-dilution assay (MBC, LD90)
# Type in all cases: cell-based
# [1] = tested on: Klebsiella pneumoniae (ESBL) CF 31 (wild-type)
# Protocol: (§1) The anti-bacterial activity of hβD2 was tested by a micro-dilution assay. Bacteria and fungi were streaked from a glycerol stock onto a Brain Heart Infusion (BHI) agar plate (3.7% w/v BHI Bouillon, 1.5% w/v Agar), grown overnight at 37° C. and 30° C., respectively and subsequently used to inoculate 40 ml of 3.7% w/v BHI Bouillon without any antibiotics in 100 ml flasks. Fresh cells were harvested by centrifugation at 16000 rpm for 10 min and washed twice with 10 mM sodium phosphate buffer, pH 7.2. The optical density was adjusted to 10^4 cells/ml. For anti-bacterial testing hβD2 was incubated in one well of a microtiter plate containing 100 μl of the bacterial suspension. Therefore, ten microlitres of hβD2 solution with a range of final concentrations tested from 0.0125 up to and including 100 mg/l was added to the bacterial suspension and incubated at 37° C. and 30° C., respectively for 2 h before colony forming units were determined. Colony forming units (CFU) were determined after plating 100 μl of a 1:100 dilution of the bacterial suspension on petri dishes with BHI medium and incubating them overnight at 37° C. For every group of the hβD2 added samples and the controls, 5 independent anti-bacterial assays were performed. A control (NC) of bacterial growth was examined for every independent assay. The number of CFU on the control (consisting of a single petri dish) was set to 0% bactericidal activity. The reduction in the CFU resulting from the anti-bacterial activity of hβD2 was related to the absolute CFU of the control within every independent assay. This value, given as a percentage of the bacterial “killing” activity, was used to describe the antibacterial activity. This kind of normalisation of the antibacterial data was performed for every experimental group.
# (§2) The antibacterial activity of hβD2 were given either as minimum bactericidal concentration (MBC), i.e., the minimum concentration of hβD2 in μg/ml which is required to kill 99.9% of the bacteria or fungi or as lethal dose (LD90), i.e., the concentration of hβD2 in μg/ml which is lethal for 90% of bacteria or fungi.
# [2] = tested on: Acinetobacter Genosp. 11 ATCC 11171
# Protocol: as §1, §2
# [3] = tested on: Candida albicans C.a 14 (wild-type)
# Protocol: as §1, §2
# [4] = tested on: Acinetobacter junii ATCC 17908
# Protocol: as §1, §2
# [5] = tested on: Proteus mirabilis UR 1792/03 (wild-type)
# Protocol: as §1, §2
# [6] = tested on: Candida glabrata UR 5836/02 (wild-type)
# Protocol: as §1, §2
# [7] = tested on: Enterococcus faecium (VRE) W 356 (wild-type)
# Protocol: as §1, §2
# [8] = tested on: Pseudomonas aeruginosa ATCC 11440
# Protocol: as §1, §2
# [9] = tested on: Pseudomonas aeruginosa ATCC 10145
# Protocol: as §1, §2
# [10] = tested on: Candida glabrata Va 27966/02 (wild-type)
# Protocol: as §1, §2
# [11] = tested on: Yersinia enterococcus NCTC 11174
# Protocol: as §1, §2
# [12] = tested on: Staphylococcus aureus ATCC 33593 (MRSA)
# Protocol: as §1, §2
# [13] = tested on: Enterobacter cloacae ATCC 13047
# Protocol: as §1, §2
# [14] = tested on: Staphylococcus aureus (MRSA 355) (wild-type)
# Protocol: as §1, §2
# [15] = tested on: E. coli (ESBL 9) UR 2217/03 (wild-type)
# Protocol: as §1, §2
# [16] = tested on: E. coli (ESBL 1) UR 2884/99 (wild-type)
# Protocol: as §1, §2
# [17] = tested on: Pseudomonas fluorescens NCTC 10038
# Protocol: as §1, §2
# [18] = tested on: Candida parapsilosis ATCC 90018
# Protocol: as §1, §2
# [19] = tested on: Proteus vulgaris BK 8730/99 (wild-type)
# Protocol: as §1, §2
# [20] = tested on: Pseudomonas putida BK 4912
# Protocol: as §1, §2
# [21] = tested on: Serratia marcescens Mero 060/148 (wild-type)
# Protocol: as §1, §2
# [22] = tested on: Serratia marcescens Mero 041/145 (wild-type)
# Protocol: as §1, §2
# [23] = tested on: Klebsiella pneumoniae (ESBL) CF 7 (wild-type)
# Protocol: as §1, §2
# [24] = tested on: Pseudomonas aeruginosa CF 479 mr (wild-type)
# Protocol: as §1, §2
# [25] = tested on: Proteus vulgaris ATCC 13315
# Protocol: as §1, §2
# [26] = tested on: Corynebacterium pseudodiphtheriae RV A1/95
# Protocol: as §1, §2
substance,measurement,setting,value
"human β-defensin-2 (GIGDPVTCLKSGAICHPVFCPRRYKQIGTCGLPGTKCCKKP; ends and bridges not checked; cysteine pairing not given here) [hβD2, recombinant hβD2]",LD 90 = μg/ml 90% killing,[1],6.25 µg/mL
same,MBC = μg/ml 99.9% killing,[1],25 µg/mL
same,LD 90 = μg/ml 90% killing,[2],0.39 µg/mL
same,MBC = μg/ml 99.9% killing,[2],3.125 µg/mL
same,LD 90 = μg/ml 90% killing,[3],12.5 µg/mL
same,MBC = μg/ml 99.9% killing,[3],25 µg/mL
same,LD 90 = μg/ml 90% killing,[4],3.125 µg/mL
same,MBC = μg/ml 99.9% killing,[4],12.5 µg/mL
same,LD 90 = μg/ml 90% killing,[5],3.125 µg/mL
same,MBC = μg/ml 99.9% killing,[5],12.5 µg/mL
same,LD 90 = μg/ml 90% killing,[6],6.25 µg/mL
same,MBC = μg/ml 99.9% killing,[6],50 µg/mL
same,LD 90 = μg/ml 90% killing,[7],50 µg/mL
same,MBC = μg/ml 99.9% killing,[7],100 µg/mL
same,LD 90 = μg/ml 90% killing,[8],12.5 µg/mL
same,MBC = μg/ml 99.9% killing,[8],12.5 µg/mL
same,LD 90 = μg/ml 90% killing,[9],6.25 µg/mL
same,MBC = μg/ml 99.9% killing,[9],12.5 µg/mL
same,LD 90 = μg/ml 90% killing,[10],12.5 µg/mL
same,MBC = μg/ml 99.9% killing,[10],>100 µg/mL
same,LD 90 = μg/ml 90% killing,[11],>100 µg/mL
same,MBC = μg/ml 99.9% killing,[11],>100 µg/mL
same,LD 90 = μg/ml 90% killing,[12],100 µg/mL
same,MBC = μg/ml 99.9% killing,[12],>100 µg/mL
same,LD 90 = μg/ml 90% killing,[13],25 µg/mL
same,MBC = μg/ml 99.9% killing,[13],100 µg/mL
same,LD 90 = μg/ml 90% killing,[14],25 µg/mL
same,MBC = μg/ml 99.9% killing,[14],100 µg/mL
same,LD 90 = μg/ml 90% killing,[15],12.5 µg/mL
same,MBC = μg/ml 99.9% killing,[15],25 µg/mL
same,LD 90 = μg/ml 90% killing,[16],3.125 µg/mL
same,MBC = μg/ml 99.9% killing,[16],12.5 µg/mL
same,LD 90 = μg/ml 90% killing,[17],6.25 µg/mL
same,MBC = μg/ml 99.9% killing,[17],25 µg/mL
same,LD 90 = μg/ml 90% killing,[18],12.5 µg/mL
same,MBC = μg/ml 99.9% killing,[18],25 µg/mL
same,LD 90 = μg/ml 90% killing,[19],100 µg/mL
same,MBC = μg/ml 99.9% killing,[19],>100 µg/mL
same,LD 90 = μg/ml 90% killing,[20],6.25 µg/mL
same,MBC = μg/ml 99.9% killing,[20],12.5 µg/mL
same,LD 90 = μg/ml 90% killing,[21],50 µg/mL
same,MBC = μg/ml 99.9% killing,[21],100 µg/mL
same,LD 90 = μg/ml 90% killing,[22],25 µg/mL
same,MBC = μg/ml 99.9% killing,[22],100 µg/mL
same,LD 90 = μg/ml 90% killing,[23],25 µg/mL
same,MBC = μg/ml 99.9% killing,[23],50 µg/mL
same,LD 90 = μg/ml 90% killing,[24],12.5 µg/mL
same,MBC = μg/ml 99.9% killing,[24],25 µg/mL
same,LD 90 = μg/ml 90% killing,[25],3.125 µg/mL
same,MBC = μg/ml 99.9% killing,[25],12.5 µg/mL
same,LD 90 = μg/ml 90% killing,[26],12.5 µg/mL
same,MBC = μg/ml 99.9% killing,[26],12.5 µg/mL

# Reference: patent US20110311601A1, “ANTIMICROBIAL MEDICAL DEVICES” (priority 2010, published 2011)
